Experimental data taken from patent publication US8802849B2, “Tricyclic benzo[4,5]thieno-[2,3-d]pyrimidine-4-yl-amin derivatives, their salts, process for producing the compounds and their pharmaceutical use” (Vichem Chemie Kutató Kft., priority 2008, dated 2014).

How the values were obtained:
Abl = Abl (Homo sapiens, UniProt P00519); assay: Abl kinase assay; type: biochemical; details: 10 μM compound; read-out: Abl percent of inhibition
Procedure, shortened: (§1)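 Radiometric assay at 10 μM compound: kinase set for 10% ATP turnover, ATP at KmATP plus [γ-33P]ATP 12.5 μCi/ml, substrate at 5-fold over Km. Incubated 1 hour at room temperature, EDTA stop, filter capture and 33P counting.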

c-Raf = c-Raf (Homo sapiens, UniProt P04049); assay: c-Raf kinase assay; type: biochemical; details: 10 μM compound; read-out: c-Raf percent of inhibition
Chain of c-Raf (P04049 whole entry, species assumed): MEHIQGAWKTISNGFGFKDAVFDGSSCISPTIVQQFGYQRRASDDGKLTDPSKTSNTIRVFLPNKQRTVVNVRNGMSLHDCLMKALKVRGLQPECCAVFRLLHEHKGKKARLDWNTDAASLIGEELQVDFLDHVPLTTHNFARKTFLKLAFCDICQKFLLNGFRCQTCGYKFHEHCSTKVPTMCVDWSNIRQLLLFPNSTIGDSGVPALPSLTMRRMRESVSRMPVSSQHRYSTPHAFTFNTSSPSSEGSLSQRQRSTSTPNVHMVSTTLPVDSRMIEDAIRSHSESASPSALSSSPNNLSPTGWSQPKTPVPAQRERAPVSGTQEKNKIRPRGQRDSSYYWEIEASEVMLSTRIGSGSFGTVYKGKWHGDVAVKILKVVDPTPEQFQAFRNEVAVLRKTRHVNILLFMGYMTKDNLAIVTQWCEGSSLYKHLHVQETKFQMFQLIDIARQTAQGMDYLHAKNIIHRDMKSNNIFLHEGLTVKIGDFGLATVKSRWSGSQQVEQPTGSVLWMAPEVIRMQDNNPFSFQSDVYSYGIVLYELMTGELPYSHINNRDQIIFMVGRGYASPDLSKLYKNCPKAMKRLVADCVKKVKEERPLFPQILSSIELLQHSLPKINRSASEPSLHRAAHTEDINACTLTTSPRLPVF
Procedure, shortened: as §1

GSK-3beta = GSK-3beta (Homo sapiens, UniProt P49841); assay: GSK-3beta kinase assay; type: biochemical; details: 10 μM compound; read-out: GSK-3beta percent of inhibition
Chain of GSK-3beta (P49841 whole entry, species assumed): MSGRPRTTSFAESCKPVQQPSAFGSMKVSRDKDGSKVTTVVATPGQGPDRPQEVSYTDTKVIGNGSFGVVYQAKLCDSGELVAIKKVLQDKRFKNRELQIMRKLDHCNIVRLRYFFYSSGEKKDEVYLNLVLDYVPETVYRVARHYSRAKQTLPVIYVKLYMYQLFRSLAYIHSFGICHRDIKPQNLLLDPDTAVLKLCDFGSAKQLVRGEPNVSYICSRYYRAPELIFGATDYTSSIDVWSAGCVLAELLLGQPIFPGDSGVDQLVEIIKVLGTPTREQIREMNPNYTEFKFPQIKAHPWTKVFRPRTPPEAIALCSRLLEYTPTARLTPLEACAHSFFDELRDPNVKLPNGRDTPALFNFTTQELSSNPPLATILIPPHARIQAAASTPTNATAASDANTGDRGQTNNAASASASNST
Procedure, shortened: as §1

SRPK1 = SRPK1 (Homo sapiens, UniProt Q96SB4); assay: SRPK1 kinase assay; type: biochemical; details: 10 μM compound; read-out: SRPK1 percent of inhibition
Procedure, shortened: as §1

c-Src = c-Src (Homo sapiens, UniProt P12931); assay: c-Src kinase assay; type: biochemical; details: 10 μM compound; read-out: c-Src percent of inhibition
Procedure, shortened: as §1

P56Lck = P56Lck (Homo sapiens, UniProt P06239); assay: P56Lck kinase assay; type: biochemical; details: 10 μM compound; read-out: P56Lck percent of inhibition
Procedure, shortened: as §1

EGFR = EGFR (Homo sapiens, UniProt P00533); assay: EGFR kinase assay (33P-ATP filter plate); type: biochemical; details: for inhibition at 10 µM: 10 μM compound, read-out: EGFR percent of inhibition; for IC50: EGFR-PTK assay
Procedure, shortened: as §1

RSK1 = RSK1 (Homo sapiens, UniProt Q15418); assay: RSK1 kinase assay; type: biochemical; details: 10 μM compound; read-out: RSK1 percent of inhibition
Chain of RSK1 (Q15418 whole entry, species assumed): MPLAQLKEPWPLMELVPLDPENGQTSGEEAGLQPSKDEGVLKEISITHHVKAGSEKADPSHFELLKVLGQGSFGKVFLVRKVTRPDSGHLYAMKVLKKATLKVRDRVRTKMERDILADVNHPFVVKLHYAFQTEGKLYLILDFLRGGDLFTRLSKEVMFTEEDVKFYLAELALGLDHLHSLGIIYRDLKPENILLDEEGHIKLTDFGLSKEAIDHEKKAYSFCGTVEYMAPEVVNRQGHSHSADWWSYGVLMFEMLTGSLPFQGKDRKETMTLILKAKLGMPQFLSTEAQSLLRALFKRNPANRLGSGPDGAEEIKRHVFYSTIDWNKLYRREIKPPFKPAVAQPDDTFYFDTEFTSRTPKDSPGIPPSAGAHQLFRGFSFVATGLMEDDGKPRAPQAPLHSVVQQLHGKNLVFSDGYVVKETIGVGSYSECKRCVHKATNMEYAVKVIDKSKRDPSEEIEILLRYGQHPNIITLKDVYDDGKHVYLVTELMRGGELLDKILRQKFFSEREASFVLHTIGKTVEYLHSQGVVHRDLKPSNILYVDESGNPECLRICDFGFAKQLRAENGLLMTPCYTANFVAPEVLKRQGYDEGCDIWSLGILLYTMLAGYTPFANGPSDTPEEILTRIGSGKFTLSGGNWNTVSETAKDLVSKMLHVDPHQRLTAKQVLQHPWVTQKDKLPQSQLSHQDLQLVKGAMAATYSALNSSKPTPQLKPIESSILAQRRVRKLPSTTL
Procedure, shortened: as §1

InsR = InsR (Homo sapiens, UniProt P06213); assay: InsR kinase assay; type: biochemical; details: 10 μM compound; read-out: InsR percent of inhibition
Chain of InsR (P06213 28-1382, species assumed): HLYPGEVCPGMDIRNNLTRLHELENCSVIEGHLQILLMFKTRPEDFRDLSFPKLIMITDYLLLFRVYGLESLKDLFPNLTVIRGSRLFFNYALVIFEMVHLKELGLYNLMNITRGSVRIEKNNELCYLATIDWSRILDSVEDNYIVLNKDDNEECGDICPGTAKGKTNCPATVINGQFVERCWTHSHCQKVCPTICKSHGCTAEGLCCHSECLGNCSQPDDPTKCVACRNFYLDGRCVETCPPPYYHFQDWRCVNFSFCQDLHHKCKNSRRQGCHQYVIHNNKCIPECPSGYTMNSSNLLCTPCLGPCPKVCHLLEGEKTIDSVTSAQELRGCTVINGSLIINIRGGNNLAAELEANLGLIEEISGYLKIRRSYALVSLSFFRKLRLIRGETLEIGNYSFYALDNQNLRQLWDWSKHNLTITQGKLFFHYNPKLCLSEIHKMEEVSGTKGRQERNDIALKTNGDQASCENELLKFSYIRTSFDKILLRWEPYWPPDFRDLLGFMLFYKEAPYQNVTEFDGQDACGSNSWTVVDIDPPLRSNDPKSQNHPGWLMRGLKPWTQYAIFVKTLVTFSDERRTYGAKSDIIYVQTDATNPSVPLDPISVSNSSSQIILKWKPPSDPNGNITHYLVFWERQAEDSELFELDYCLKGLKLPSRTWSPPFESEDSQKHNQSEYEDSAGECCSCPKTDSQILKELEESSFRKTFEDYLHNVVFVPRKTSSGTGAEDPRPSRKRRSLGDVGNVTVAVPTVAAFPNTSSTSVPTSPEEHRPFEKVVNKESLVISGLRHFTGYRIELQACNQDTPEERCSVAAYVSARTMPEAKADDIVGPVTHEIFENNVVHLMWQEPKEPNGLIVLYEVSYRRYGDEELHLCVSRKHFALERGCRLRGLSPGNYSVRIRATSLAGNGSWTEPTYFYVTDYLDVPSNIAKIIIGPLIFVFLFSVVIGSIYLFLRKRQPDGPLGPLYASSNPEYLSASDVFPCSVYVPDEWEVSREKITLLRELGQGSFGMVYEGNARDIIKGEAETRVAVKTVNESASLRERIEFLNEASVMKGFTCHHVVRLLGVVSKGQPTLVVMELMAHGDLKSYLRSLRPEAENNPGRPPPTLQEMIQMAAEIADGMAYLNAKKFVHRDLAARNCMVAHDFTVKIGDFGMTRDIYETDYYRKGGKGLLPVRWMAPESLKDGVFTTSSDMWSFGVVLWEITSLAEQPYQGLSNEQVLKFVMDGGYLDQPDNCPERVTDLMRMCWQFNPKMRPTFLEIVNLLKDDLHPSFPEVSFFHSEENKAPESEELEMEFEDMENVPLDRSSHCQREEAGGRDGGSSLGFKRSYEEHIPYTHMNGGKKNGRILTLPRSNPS
Procedure, shortened: as §1

AKT1/PKBa = AKT1/PKBa (Homo sapiens, UniProt P31749); assay: AKT1/PKBa kinase assay; type: biochemical; details: 10 μM compound; read-out: AKT1/PKBa percent of inhibition
Chain of AKT1/PKBa (P31749 whole entry): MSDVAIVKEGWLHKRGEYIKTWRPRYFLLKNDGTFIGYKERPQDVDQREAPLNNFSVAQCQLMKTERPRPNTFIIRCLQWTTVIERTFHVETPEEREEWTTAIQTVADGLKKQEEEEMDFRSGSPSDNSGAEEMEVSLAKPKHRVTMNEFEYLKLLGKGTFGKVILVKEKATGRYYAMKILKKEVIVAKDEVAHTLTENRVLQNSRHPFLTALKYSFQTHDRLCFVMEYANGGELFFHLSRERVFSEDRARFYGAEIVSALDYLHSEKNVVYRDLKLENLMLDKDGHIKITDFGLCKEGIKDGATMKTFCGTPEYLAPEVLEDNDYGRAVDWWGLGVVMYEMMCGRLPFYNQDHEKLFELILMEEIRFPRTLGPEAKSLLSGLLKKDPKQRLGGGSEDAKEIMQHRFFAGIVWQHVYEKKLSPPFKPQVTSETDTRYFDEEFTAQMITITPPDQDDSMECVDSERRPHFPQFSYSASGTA
Procedure, shortened: as §1

Kit = Kit (Homo sapiens, UniProt P10721); assay: Kit kinase assay; type: biochemical; details: 10 μM compound; read-out: Kit percent of inhibition
Chain of Kit (P10721 26-976, species assumed): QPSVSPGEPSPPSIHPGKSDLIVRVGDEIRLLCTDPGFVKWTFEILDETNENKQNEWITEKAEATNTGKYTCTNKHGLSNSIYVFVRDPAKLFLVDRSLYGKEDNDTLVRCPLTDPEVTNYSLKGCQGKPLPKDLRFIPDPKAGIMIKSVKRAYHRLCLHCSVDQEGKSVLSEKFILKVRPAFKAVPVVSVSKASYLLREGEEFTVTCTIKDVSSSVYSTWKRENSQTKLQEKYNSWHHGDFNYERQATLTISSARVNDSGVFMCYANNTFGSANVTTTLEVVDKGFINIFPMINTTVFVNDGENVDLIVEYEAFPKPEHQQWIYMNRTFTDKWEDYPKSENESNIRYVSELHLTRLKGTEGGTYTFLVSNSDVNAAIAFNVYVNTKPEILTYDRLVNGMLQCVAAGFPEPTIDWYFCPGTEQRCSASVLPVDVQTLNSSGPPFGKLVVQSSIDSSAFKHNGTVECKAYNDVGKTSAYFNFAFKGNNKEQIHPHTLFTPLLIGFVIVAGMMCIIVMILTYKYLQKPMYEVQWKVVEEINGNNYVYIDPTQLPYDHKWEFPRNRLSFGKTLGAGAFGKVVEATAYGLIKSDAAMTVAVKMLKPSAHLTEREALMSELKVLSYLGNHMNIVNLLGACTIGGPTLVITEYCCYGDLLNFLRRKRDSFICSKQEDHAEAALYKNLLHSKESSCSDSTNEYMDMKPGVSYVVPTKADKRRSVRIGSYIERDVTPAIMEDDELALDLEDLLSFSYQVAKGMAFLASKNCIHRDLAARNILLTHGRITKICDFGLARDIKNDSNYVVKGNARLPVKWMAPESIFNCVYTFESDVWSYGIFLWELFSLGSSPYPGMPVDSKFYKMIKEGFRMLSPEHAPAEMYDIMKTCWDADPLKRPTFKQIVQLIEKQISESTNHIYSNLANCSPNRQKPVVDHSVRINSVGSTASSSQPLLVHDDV
Procedure, shortened: as §1

CDK2/CycA = CDK2/CycA (Homo sapiens, UniProt P24941); assay: CDK2/CycA kinase assay; type: biochemical; details: 10 μM compound; read-out: CDK2/CycA percent of inhibition
Procedure, shortened: as §1

cMet = cMet (Homo sapiens, UniProt P08581); assay: cMet kinase assay; type: biochemical; details: 10 μM compound; read-out: cMet percent of inhibition
Procedure, shortened: as §1

CK1-alpha = CK1-alpha (Homo sapiens, UniProt P48729); assay: CK1-alpha kinase assay; type: biochemical; details: 10 μM compound; read-out: CK1-alpha percent of inhibition
Procedure, shortened: as §1

P70S6K = P70S6K (Homo sapiens, UniProt P23443); assay: P70S6K kinase assay; type: biochemical; details: 10 μM compound; read-out: P70S6K percent of inhibition
Procedure, shortened: as §1

Jnk1a1 = Jnk1a1 (Homo sapiens, UniProt P45983); assay: Jnk1a1 kinase assay; type: biochemical; details: 10 μM compound; read-out: Jnk1a1 percent of inhibition
Procedure, shortened: as §1

ROCK2 = ROCK2 (Homo sapiens, UniProt O75116); assay: ROCK2 kinase assay; type: biochemical; details: 10 μM compound; read-out: ROCK2 percent of inhibition
Procedure, shortened: as §1

IKK-beta = biological target: T1, IKK-beta (Homo sapiens, UniProt O14920); assay: IKK-beta kinase assay; type: biochemical; details: 10 μM compound; read-out: IKK-beta percent of inhibition
T1 sequence (O14920 1-756): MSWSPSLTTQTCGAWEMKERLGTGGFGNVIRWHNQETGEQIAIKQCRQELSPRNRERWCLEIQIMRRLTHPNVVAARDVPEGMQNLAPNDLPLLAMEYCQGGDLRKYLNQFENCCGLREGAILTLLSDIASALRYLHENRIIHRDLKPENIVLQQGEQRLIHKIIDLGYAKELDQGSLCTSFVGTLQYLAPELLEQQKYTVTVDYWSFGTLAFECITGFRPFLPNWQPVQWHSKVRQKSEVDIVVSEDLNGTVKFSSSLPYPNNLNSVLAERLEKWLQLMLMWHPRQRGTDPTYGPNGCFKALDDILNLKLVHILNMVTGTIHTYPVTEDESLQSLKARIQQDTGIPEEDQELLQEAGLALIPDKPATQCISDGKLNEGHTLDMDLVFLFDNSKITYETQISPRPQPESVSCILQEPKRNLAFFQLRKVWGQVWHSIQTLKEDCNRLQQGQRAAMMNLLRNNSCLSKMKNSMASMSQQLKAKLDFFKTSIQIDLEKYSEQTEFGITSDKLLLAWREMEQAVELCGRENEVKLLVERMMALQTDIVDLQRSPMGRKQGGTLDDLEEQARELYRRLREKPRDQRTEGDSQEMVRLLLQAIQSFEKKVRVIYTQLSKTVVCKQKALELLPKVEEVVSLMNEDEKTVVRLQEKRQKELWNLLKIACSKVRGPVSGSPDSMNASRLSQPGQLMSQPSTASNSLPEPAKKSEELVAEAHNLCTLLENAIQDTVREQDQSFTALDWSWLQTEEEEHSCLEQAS
Procedure, shortened: as §1

PDGFR-beta = PDGFR-beta (Homo sapiens, UniProt P09619); assay: PDGFR-beta kinase assay; type: biochemical; details: 10 μM compound; read-out: PDGFR-beta percent of inhibition
Procedure, shortened: as §1

MAPK-ERK1 = MAPK-ERK1 (Homo sapiens, UniProt P27361); assay: MAPK-ERK1 kinase assay; type: biochemical; details: 10 μM compound; read-out: MAPK-ERK1 percent of inhibition
Chain of MAPK-ERK1 (P27361 whole entry): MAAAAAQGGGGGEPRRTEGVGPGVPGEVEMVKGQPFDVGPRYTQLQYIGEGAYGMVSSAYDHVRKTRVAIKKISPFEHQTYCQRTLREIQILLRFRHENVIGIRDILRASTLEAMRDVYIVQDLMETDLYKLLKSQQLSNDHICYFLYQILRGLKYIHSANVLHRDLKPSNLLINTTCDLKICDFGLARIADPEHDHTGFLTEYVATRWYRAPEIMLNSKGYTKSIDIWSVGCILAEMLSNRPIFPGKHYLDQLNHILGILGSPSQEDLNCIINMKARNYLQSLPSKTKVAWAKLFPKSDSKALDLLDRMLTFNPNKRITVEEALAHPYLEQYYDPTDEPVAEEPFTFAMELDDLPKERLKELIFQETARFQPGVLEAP
Procedure, shortened: as §1

Compound	inhibition at 10 µM (Abl) [%]	inhibition at 10 µM (c-Raf) [%]	inhibition at 10 µM (GSK-3beta) [%]	inhibition at 10 µM (SRPK1) [%]	inhibition at 10 µM (c-Src) [%]	inhibition at 10 µM (P56Lck) [%]	inhibition at 10 µM (EGFR) [%]	inhibition at 10 µM (RSK1) [%]	inhibition at 10 µM (InsR) [%]	inhibition at 10 µM (AKT1/PKBa) [%]	inhibition at 10 µM (Kit) [%]	inhibition at 10 µM (CDK2/CycA) [%]	inhibition at 10 µM (cMet) [%]	inhibition at 10 µM (CK1-alpha) [%]	inhibition at 10 µM (P70S6K) [%]	inhibition at 10 µM (Jnk1a1) [%]	melting point [°C]	inhibition at 10 µM (ROCK2) [%]	inhibition at 10 µM (IKK-beta) [%]	inhibition at 10 µM (PDGFR-beta) [%]	further results
Clc1cccc(Nc2nc(C3CC3)nc3sc4ccccc4c23)c1 [Compound 17, (2-Cyclopropyl-benzo[4,5]thieno[2,3-d]pyrimidin-4-yl)-(3-chloro-phenyl)-amine]	7	12	3	9	1	9	86	-7	-5	-1	11	-2	-5	0	7	-8	188	2	8	0	inhibition at 10 µM (MAPK-ERK1): 2%
Brc1cccc(Nc2nc(C3CC3)nc3sc4ccccc4c23)c1 [Compound 18, (2-Cyclopropyl-benzo[4,5]thieno[2,3-d]pyrimidin-4-yl)-(3-bromo-phenyl)-amine]	-2	-8	0	12	22	11	87	-4	5	0	5	-2	-7	10	2	-7	180	4	3	0	inhibition at 10 µM (MAPK-ERK1): -6%
Oc1cccc(Nc2nc(C3CC3)nc3sc4ccccc4c23)c1 [Compound 19, 3-(2-Cyclopropyl-benzo[4,5]thieno[2,3-d]pyrimidin-4-ylamino)-phenol]	3	-4	7	3	11	3	54	-11	11	-5	3	-12	-12	9	3	-2	222	7	12	-1	inhibition at 10 µM (MAPK-ERK1): 2%

Now from value to compound, other results behind:

inhibition at 10 µM (Abl) [%]	inhibition at 10 µM (c-Raf) [%]	inhibition at 10 µM (GSK-3beta) [%]	inhibition at 10 µM (SRPK1) [%]	inhibition at 10 µM (c-Src) [%]	inhibition at 10 µM (P56Lck) [%]	inhibition at 10 µM (EGFR) [%]	inhibition at 10 µM (RSK1) [%]	inhibition at 10 µM (InsR) [%]	inhibition at 10 µM (AKT1/PKBa) [%]	inhibition at 10 µM (Kit) [%]	inhibition at 10 µM (CDK2/CycA) [%]	inhibition at 10 µM (cMet) [%]	inhibition at 10 µM (CK1-alpha) [%]	inhibition at 10 µM (P70S6K) [%]	inhibition at 10 µM (Jnk1a1) [%]	melting point [°C]	inhibition at 10 µM (ROCK2) [%]	inhibition at 10 µM (IKK-beta) [%]	inhibition at 10 µM (PDGFR-beta) [%]	Compound	further results
7	9	0	18	23	0	46	7	-12	-2	8	4	-2	3	9	-5	198	0	9	-1	COc1cccc(Nc2nc(C3CC3)nc3sc4ccccc4c23)c1 [Compound 20, (2-Cyclopropyl-benzo[4,5]thieno[2,3-d]pyrimidin-4-yl)-(3-methoxy-phenyl)-amine]	inhibition at 10 µM (MAPK-ERK1): 21%
-4	-2	3	8	3	-9	98	1	7	3	-4	-10	1	0	7	-2	171	4	2	-3	Fc1cccc(Nc2ncnc3sc4ccccc4c23)c1 [Compound 21, Benzo[4,5]thieno[2,3-d]pyrimidin-4-yl-(3-fluoro-phenyl)-amine]	IC50 (EGFR): 26.9 nM; inhibition at 10 µM (MAPK-ERK1): 1%
8	-6	5	6	9	11	98	-2	18	-7	1	-6	5	-2	5	0	168	4	11	-8	Clc1cccc(Nc2ncnc3sc4ccccc4c23)c1 [Compound 22, Benzo[4,5]thieno[2,3-d]pyrimidin-4-yl-(3-chloro-phenyl)-amine]	inhibition at 10 µM (MAPK-ERK1): 5%
-10	3	-3	6	7	4	99	-4	4	9	6	12	4	7	-1	-10	160	2	-5	10	Brc1cccc(Nc2ncnc3sc4ccccc4c23)c1 [Compound 23, Benzo[4,5]thieno[2,3-d]pyrimidin-4-yl-(3-bromo-phenyl)-amine]	IC50 (EGFR): 8.08 nM; inhibition at 10 µM (MAPK-ERK1): 8%
